“And” between values parts separate entries of the source, which are not always exact repeats. Equal values may be shown once.
How the values were obtained:
[1] = system: A549 and H1975 cells; assay: ROS generation, CM-H2DCFDA fluorimetric assay, statements covering both cancer cell lines; assay type: cell-based, human; settings: 1 h; for Effect of NAC addition on ROS generation: 20 μM compound, 50 μM NAC; for ROS generation compared with cisplatin, tamoxifen and 5-fluorouracil: both cancer cell types, 20 μM
Procedure: (§1) Then, detached cells were resuspended in 0.5 mL of phosphate-buffered saline (PBS) containing 10 μM·L^–1 fluorescent probe 5-(and-6)-chloromethyl-2′,7′-dichlorodihydrofluorescein diacetate-acetyl ester (CM-H2DCFDA) and incubated for 15 min at 37 °C. Afterward, the incubation cells were centrifuged at 13,000 rpm for 30 s and resuspended in 0.5 mL of PBS. The fluorescence of each sample (index of ROS levels) was read at 488 nm (λexcitation) and 520 nm (λemission). The results were expressed as DCF fluorescence per mg cell proteins normalized vs control.

[2] = system: BEAS-2B cells; assay: Crystal violet cell viability / antiproliferative assay, BEAS-2B; assay type: cell-based, human; settings: for IC50: nonmalignant human bronchial epithelium BEAS-2B cells, treatment time 72 h
Procedure: (§2) Human non-small-cell lung cancer cell lines A549 and H1975 and the human bronchial epithelial BEAS-2B cell line were purchased from ATCC (Manassas, VA). Cells were cultured in Roswell Park Memorial Institute (RPMI)-1640 media supplemented with 10% v/v fetal bovine serum, 100 U·mL^–1 penicillin, and 100 μg·mL^–1 streptomycin. Cells were grown in a humidified atmosphere at 37 °C and 5% CO2.
(§3) Crystal violet staining was used to assess cell viability. […] After 72 h, the medium was discarded and cells were stained for 30 min with 5% w/v crystal violet solution in 66% v/v methanol, 200 μL per well. After staining, the crystal violet solution was removed, and the 24-well plate was washed with water to eliminate the excess solution. When dried, the plates were photographed. Quantitation of crystal violet staining was performed after solubilizing the dye in 10% acetic acid, 400 μL per well, and reading the absorbance of each well at 540 nm (HT Synergy 96-well microplate reader, Bio-Tek Instruments, Winooski, VT). The relative absorbance of untreated cells was considered as 100% viability; results were expressed as a percentage of viable cells vs untreated cells.

[3] = system: H1975 cells; assay: Crystal violet cell viability / antiproliferative assay, H1975; assay type: cell-based, human; settings: for Selectivity index SInd, H1975: IC50(BEAS-2B)/IC50(H1975); for IC50: human NSCLC H1975 cells, treatment time 72 h
Procedure: as §2, §3

[4] = Cyclic voltammetry in dichloromethane; assay type: physicochemical; settings: for E1°′ formal potential / E2°′ formal potential / E3°′ formal potential: vs FcH/[FcH]+, CH2Cl2, 0.1 mol·L–1 [NBu4][B(C6F5)4], 25 °C, scan rate 100 mV·s–1; for KC comproportionation constant: KC = exp(nF/RT)ΔE1/2, 25 °C; for Difference between the formal potentials: first and second oxidation
Procedure: Electrochemical studies of compounds 1a, 1c, 2a, and 2c were carried out using cyclic voltammetry (CV) and square-wave voltammetry (SWV) (Table 1; Figures 5 (compounds 1a, 2a) and S13 (compounds 1c, 2c), see the SI). A solution of [NBu4][B(C6F5)4] (0.1 mol·L^–1) in anhydrous CH2Cl2 was used as the supporting electrolyte.[79] The choice of the supporting electrolyte was motivated by the beneficial properties of [B(C6F5)4]^− ions. In contrast to smaller counter ions such as [Cl]^−, [PF6]^−, [BF4]^−, or [ClO4]^−, [B(C6F5)4]^− tolerates the stabilization of greatly charged species in solution, minimizing undesired ion-pairing effects.[80],[81] The voltammetry experiments were performed at 25 °C. All potentials are referenced to the FcH/[FcH]^+ (Fc = Fe(η^5-C5H4)(η^5-C5H5)) redox couple (E°′ = 0 mV).[82]
Measurements on 1.0 mmol·L^–1 solutions of analytes 1a, 1c, 2a, and 2c in anhydrous dichloromethane solutions, containing 0.1 mol·L^–1 [NBu4][B(C6F5)4] as the supporting electrolyte, were conducted under an atmosphere of argon at 25 °C. A three-electrode cell, which utilized a Pt auxiliary electrode, a glassy carbon working electrode (surface area 0.031 cm^2), and an Ag/Ag^+ (0.01 mol·L^–1 AgNO3) reference electrode, was used as described in refs ([82]) and ([102]−[104]). […] Experimental potentials were referenced against an Ag/Ag^+ reference electrode, but results presented are referenced against the ferrocene [FcH/FcH^+ couple = 220 mV vs Ag/Ag^+, ΔEp = 61 mV; FcH = Fe(η^5-C5H5)2] as an internal standard.[82] When decamethylferrocene [Fc* = Fe(η^5-C5Me5)2] was used as an internal standard, the experimentally measured potentials were converted into Evs FcH/FcH^+ (under our conditions, the Fc*/Fc*^+ couple was at −614 mV vs FcH/FcH^+, ΔEp = 60 mV).

[5] = system: A549 cells; assay: Crystal violet cell viability / antiproliferative assay, A549; assay type: cell-based, human; settings: for Selectivity index SInd, A549: IC50(BEAS-2B)/IC50(A549); for IC50: human NSCLC A549 cells, treatment time 72 h
Procedure: as §2, §3

[6] = system: A549 cells; assay: ROS generation, CM-H2DCFDA fluorimetric assay, A549; assay type: cell-based, human; settings: 20 μM, 1 h
Procedure: as §1

[7] = system: H1975 cells; assay: ROS generation, CM-H2DCFDA fluorimetric assay, H1975; assay type: cell-based, human; settings: 20 μM, 1 h
Procedure: as §1

[8] = versus cisplatin, tamoxifen, 5-fluorouracil

| SMILES | Effect of NAC addition on ROS generation [1] | IC50 [2] | Selectivity index SInd, H1975 ([3]; 72 h) | IC50 [3] | E1°′ formal potential [4] | Selectivity index SInd, A549 ([5]; 72 h) | IC50 [5] | ROS generation compared with cisplatin, tamoxifen and 5-fluorouracil [1] | Increase of cell viability with NAC compared to cells treated only with compound ([2]; BEAS-2B cells, 20 μM compound, 50 μM NAC, 72 h) | Increase of cell viability with NAC compared to cells treated only with compound ([3]; H1975 cells, 20 μM compound, 50 μM NAC, 72 h) | KC comproportionation constant [4] | Difference between the formal potentials [4] | E2°′ formal potential [4] | Increase of cell viability with NAC compared to cells treated only with compound ([5]; A549 cells, 20 μM compound, 50 μM NAC, 72 h) | ROS generated, times more than 1c [6] | ROS generation, times more potent than reference drugs [6, 8] | ROS generated, times more than 1c [7] | ROS generation, times more potent than reference drugs [7, 8] | E3°′ formal potential [4] | IC50 ([3]; NCI-H1975) |
| --- | --- | --- | --- | --- | --- | --- | --- | --- | --- | --- | --- | --- | --- | --- | --- | --- | --- | --- | --- | --- |
| CC/C(=C(\c1ccccc1)c1ccc(OCCN(C)C)cc1)c1ccccc1 [tamoxifen] | almost no effect | – | – | – | – | – | – | – | – | – | – | – | – | – | – | – | – | – | – | – |
| Cc1cn([C@H]2C[C@H](n3cc(-[c-]4cccc4)nn3)[C@@H](CO)O2)c(=O)[nH]c1=O.[Fe+2].c1cc[cH-]c1 [compound 1c, 3′-Deoxy-3′-(4-ferrocenyl-1H-1,2,3-triazol-1-yl)thymidine] | – | 215 ± 7 µM | 0.5 | 456 ± 17 µM | 60 mV and 60 (66) mV | 0.9 | 230 ± 13 µM | more effective ROS generators | – | – | – | – | – | – | – | – | – | – | – | – |
| Cc1cn([C@H]2C[C@H](n3nnc(-[c-]4cccc4)c3C#C[c-]3cccc3)[C@@H](CO)O2)c(=O)[nH]c1=O.[Fe+2].[Fe+2].c1cc[cH-]c1.c1cc[cH-]c1 [compound 1a, 3′-Deoxy-3′-(4-ferrocenyl-5-ethynylferrocenyl-1H-1,2,3-triazol-1-yl)thymidine] | – | 469 ± 10 µM | 93.8 | 5 ± 2 µM | 80 mV and 80 (60) mV | 8.2 | 57 ± 18 µM | more effective ROS generators | analogous increase | ~20% | 2412 | 200 mV | 280 mV and 280 (66) mV | analogous increase | ~2.5 times | ~2.5 times | about 1.6 times | about 2 times | – | – |
| O=C(CCn1cc(-[c-]2cccc2)nn1)[c-]1cccc1.[Fe+2].[Fe+2].c1cc[cH-]c1.c1cc[cH-]c1 [compound 2c, 1-(3-Propionyloferrocenyl)-4-ferrocenyl-1H-1,2,3-triazole] | – | 198 ± 7 µM | 1.6 | 122 ± 45 µM | 20 mV and 20 (61) mV | 0.2 | 805 ± 72 µM | – | – | – | – | – | – | – | – | – | – | – | 330 mV and 330 (67) mV | – |
| O=c1[nH]cc(F)c(=O)[nH]1 [5-fluorouracil, reference compound] | almost no effect | 6 ± 0.1 µM | 0.2 | – | – | 0.1 | 69 ± 21 µM | – | – | – | – | – | – | – | – | – | – | – | – | 32 ± 12 µM |
| N.N.[Cl][Pt][Cl] [cisplatin, reference compound] | almost no effect | 3 ± 0.1 µM | 0.7 | 4 ± 0.1 µM | – | 0.02 | 108 ± 12 µM | – | – | – | – | – | – | – | – | – | – | – | – | – |
| O=C(CCn1nnc(-[c-]2cccc2)c1C#C[c-]1cccc1)[c-]1cccc1.[Fe+2].[Fe+2].[Fe+2].c1cc[cH-]c1.c1cc[cH-]c1.c1cc[cH-]c1 [compound 2a, 1-(3-Propionylferrocenyl)-4-ferrocenyl-5-ethynylferrocenyl-1H-1,2,3-triazole] | – | 257 ± 5 µM | 3.0 | 84 ± 5 µM | 45 mV and 45 (60) mV | 1.4 | 184 ± 7 µM | – | – | – | 9426 | 235 mV | 280 mV and 280 (61) mV | – | – | – | – | – | 365 mV and 365 (63) mV | – |

Source: paper PMC9490837, “Electronic Coupling in 1,2,3-Triazole Bridged Ferrocenes and Its Impact on Reactive Oxygen Species Generation and Deleterious Activity in Cancer Cells” (Inorganic Chemistry, 2022)
